*1 amine or outer side, *2 acyl side, *3 side chain or, on linkers, in order; H or OH if unused. Where a SMILES comes first, the peptide text is derived from it. Side-chain parts run from the residue outwards. [ ]: non-standard residue; d: D form. The star is where a group is joined. C20 diacid = O=C(O)CCCCCCCCCCCCCCCCCCC(=O)*; C18 diacid = O=C(O)CCCCCCCCCCCCCCCCC(=O)*; αMePhe(2-F) = C[C@](N)(Cc1ccccc1F)C(=O)O; γGlu = O=C(O)[C@H](CCC(=O)[*:2])N[*:1]; 4Pal = N[C@@H](Cc1ccncc1)C(=O)O; AEEA = NCCOCCOCC(=O)O; Aib = CC(C)(N)C(=O)O
What was measured:
Test in all cases: cAMP functional assay (HTRF) in HEK293 cells in presence of 0.1% casein
Assay type in all cases: cell-based
[1] = molecular target: T1, human glucagon receptor (GcgR) (Homo sapiens, UniProt P47871); conditions: HEK293 cells expressing human GcgR, geometric mean, read-out: hGcgR cAMP Rel EC50 nM (SEM, n)
T1 construct: expressed in transfected cells; host or cells: HEK293

[2] = molecular target: T2, human glucose-dependent insulinotropic peptide receptor (GIPR) (Homo sapiens, UniProt P48546); conditions: HEK293 cells expressing human GIPR, geometric mean, read-out: hGIPR cAMP Rel EC50 nM (SEM, n)
T2 construct: expressed in transfected cells; host or cells: HEK293
T2 sequence (P48546 22-466): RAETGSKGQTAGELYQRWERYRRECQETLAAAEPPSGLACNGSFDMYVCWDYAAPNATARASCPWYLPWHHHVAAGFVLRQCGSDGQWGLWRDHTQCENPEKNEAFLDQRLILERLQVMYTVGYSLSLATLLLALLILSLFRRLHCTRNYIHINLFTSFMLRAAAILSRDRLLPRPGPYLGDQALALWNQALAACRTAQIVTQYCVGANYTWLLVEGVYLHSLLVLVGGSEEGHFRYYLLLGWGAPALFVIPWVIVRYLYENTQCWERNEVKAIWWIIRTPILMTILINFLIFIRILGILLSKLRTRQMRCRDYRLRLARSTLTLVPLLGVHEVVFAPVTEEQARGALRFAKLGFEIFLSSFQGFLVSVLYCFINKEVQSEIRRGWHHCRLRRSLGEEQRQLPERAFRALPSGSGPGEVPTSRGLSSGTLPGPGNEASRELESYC

[3] = molecular target: T3, human GLP-1 receptor (GLP-1R) (Homo sapiens, UniProt P43220); conditions: HEK293 cells expressing human GLP-1R, geometric mean, read-out: hGLP1R cAMP Rel EC50 nM (SEM, n)
T3 construct: expressed in transfected cells; host or cells: HEK293
T3 sequence (P43220 24-463): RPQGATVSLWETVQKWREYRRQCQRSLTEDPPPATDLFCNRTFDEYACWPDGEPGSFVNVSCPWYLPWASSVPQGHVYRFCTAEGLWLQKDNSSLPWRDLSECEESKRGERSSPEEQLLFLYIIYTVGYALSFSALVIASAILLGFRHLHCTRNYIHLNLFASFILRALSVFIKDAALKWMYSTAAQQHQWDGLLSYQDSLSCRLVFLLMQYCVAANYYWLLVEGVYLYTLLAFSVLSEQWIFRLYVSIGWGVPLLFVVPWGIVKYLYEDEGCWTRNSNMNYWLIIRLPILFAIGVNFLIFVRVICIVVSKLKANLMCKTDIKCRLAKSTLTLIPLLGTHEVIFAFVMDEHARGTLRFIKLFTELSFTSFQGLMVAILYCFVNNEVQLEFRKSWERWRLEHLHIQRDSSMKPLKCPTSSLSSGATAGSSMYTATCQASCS

T1 sequence (P47871 26-477): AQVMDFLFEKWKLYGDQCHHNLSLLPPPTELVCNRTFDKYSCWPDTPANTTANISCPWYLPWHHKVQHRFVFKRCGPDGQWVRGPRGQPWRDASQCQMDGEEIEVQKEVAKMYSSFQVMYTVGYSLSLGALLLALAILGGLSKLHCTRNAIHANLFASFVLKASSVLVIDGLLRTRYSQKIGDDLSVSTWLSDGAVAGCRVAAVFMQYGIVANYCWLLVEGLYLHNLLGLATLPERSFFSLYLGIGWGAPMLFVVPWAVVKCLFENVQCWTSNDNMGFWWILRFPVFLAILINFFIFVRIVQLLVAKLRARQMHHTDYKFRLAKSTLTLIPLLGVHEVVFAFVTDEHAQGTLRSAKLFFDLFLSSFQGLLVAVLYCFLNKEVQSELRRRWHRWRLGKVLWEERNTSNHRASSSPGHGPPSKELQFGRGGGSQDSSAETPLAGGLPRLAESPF

Question: Which EC50 [1] does the source give for CC[C@H](C)[C@H](NC(=O)[C@H](CO)NC(=O)[C@H](Cc1ccc(O)cc1)NC(=O)[C@H](CC(=O)O)NC(=O)[C@H](CO)NC(=O)[C@@H](NC(=O)[C@](C)(Cc1ccccc1F)NC(=O)[C@@H](NC(=O)CNC(=O)[C@H](CCC(=O)O)NC(=O)C(C)(C)NC(=O)[C@@H](N)Cc1ccc(O)cc1)[C@@H](C)O)[C@@H](C)CC)C(=O)N[C@@H](C)C(=O)N[C@@H](CC(C)C)C(=O)N[C@@H](CC(=O)O)C(=O)N[C@@H](CCCCN)C(=O)N[C@H](C(=O)N[C@@H](Cc1c[nH]cn1)C(=O)N[C@@H](CCC(N)=O)C(=O)NC(C)(C)C(=O)N[C@@H](CCC(=O)O)C(=O)N[C@@H](Cc1ccccc1)C(=O)N[C@H](C(=O)N[C@@H](CC(N)=O)C(=O)N[C@@H](Cc1ccc(O)cc1)C(=O)N[C@@H](CCCCNC(=O)COCCOCCNC(=O)COCCOCCNC(=O)CC[C@H](NC(=O)CCCCCCCCCCCCCCCCCCC(=O)O)C(=O)O)C(=O)N[C@@H](CC(C)C)C(=O)N[C@@H](C)C(=O)NCC(=O)NCC(=O)N1CCC[C@H]1C(=O)N[C@@H](CO)C(=O)N[C@@H](CO)C(=O)NCC(=O)N[C@@H](C)C(=O)N1CCC[C@H]1C(=O)N1CCC[C@H]1C(=O)N1CCC[C@H]1C(=O)N[C@@H](CO)C(N)=O)C(C)C)[C@@H](C)CC [Example 98] (H-Y[Aib]EGT[αMePhe(2-F)]ISDYSIALDKIHQ[Aib]EFVNYK([AEEA-AEEA-γGlu-C20 diacid])LAGGPSSGAPPPS-NH2) here?
Answer: > 5000 nM

Question: And the EC50 [2]?
Answer: 0.00718 nM

Question: What about the EC50 [3] of the same compound?
Answer: 649 nM

Question: Which EC50 [1] does the source give for CC[C@H](C)[C@H](NC(=O)[C@H](CO)NC(=O)[C@H](Cc1ccc(O)cc1)NC(=O)[C@H](CC(=O)O)NC(=O)[C@H](CO)NC(=O)[C@@H](NC(=O)[C@H](Cc1ccccc1)NC(=O)[C@@H](NC(=O)CNC(=O)[C@H](CCC(=O)O)NC(=O)[C@@H](C)NC(=O)[C@@H](N)Cc1ccc(O)cc1)[C@@H](C)O)[C@@H](C)CC)C(=O)N[C@@H](CC(C)C)C(=O)N[C@@H](CC(C)C)C(=O)N[C@@H](CC(=O)O)C(=O)N[C@@H](CCCCN)C(=O)N[C@@H](CCCCNC(=O)COCCOCCNC(=O)COCCOCCNC(=O)CC[C@H](NC(=O)CCCCCCCCCCCCCCCCCCC(=O)O)C(=O)O)C(=O)N[C@@H](Cc1c[nH]cn1)C(=O)N[C@@H](CCC(N)=O)C(=O)N[C@@H](CCC(N)=O)C(=O)N[C@@H](CC(=O)O)C(=O)N[C@@H](Cc1ccccc1)C(=O)N[C@H](C(=O)N[C@@H](CCC(=O)O)C(=O)N[C@@H](Cc1c[nH]c2ccccc12)C(=O)N[C@@H](CC(C)C)C(=O)N[C@@H](CC(C)C)C(=O)N[C@@H](C)C(=O)N[C@@H](CCC(N)=O)C(=O)NCC(=O)N1CCC[C@H]1C(=O)N[C@@H](CO)C(=O)N[C@@H](CO)C(=O)NCC(=O)N[C@@H](C)C(=O)N1CCC[C@H]1C(=O)N1CCC[C@H]1C(=O)N1CCC[C@H]1C(=O)N[C@@H](CO)C(N)=O)C(C)C [Example 14] (H-Y[dA]EGTFISDYSILLDKK([AEEA-AEEA-γGlu-C20 diacid])HQQDFVEWLLAQGPSSGAPPPS-NH2) here?
Answer: > 5000 nM

Question: What about the EC50 [2] of the same compound?
Answer: 0.34 nM

Question: And the EC50 [3]?
Answer: > 100 nM

Question: What does the source list for CC[C@H](C)[C@H](NC(=O)[C@H](CO)NC(=O)[C@H](Cc1ccc(O)cc1)NC(=O)[C@H](CC(=O)O)NC(=O)[C@H](CO)NC(=O)[C@@H](NC(=O)[C@H](Cc1ccccc1)NC(=O)[C@@H](NC(=O)CNC(=O)[C@H](CCC(=O)O)NC(=O)[C@@H](C)NC(=O)[C@@H](N)Cc1ccc(O)cc1)[C@@H](C)O)[C@@H](C)CC)C(=O)N[C@@H](CC(C)C)C(=O)N[C@@H](CC(C)C)C(=O)N[C@@H](CC(=O)O)C(=O)N[C@@H](CCCCN)C(=O)N[C@@H](CCCCNC(=O)COCCOCCNC(=O)COCCOCCNC(=O)CC[C@H](NC(=O)CCCCCCCCCCCCCCCCCCC(=O)O)C(=O)O)C(=O)N[C@@H](C)C(=O)N[C@@H](CCC(N)=O)C(=O)N[C@@H](CCC(N)=O)C(=O)N[C@@H](CC(=O)O)C(=O)N[C@@H](Cc1ccccc1)C(=O)N[C@H](C(=O)N[C@@H](CC(N)=O)C(=O)N[C@@H](Cc1c[nH]c2ccccc12)C(=O)N[C@@H](CC(C)C)C(=O)N[C@@H](CC(C)C)C(=O)N[C@@H](C)C(=O)N[C@@H](CCC(N)=O)C(=O)NCC(=O)N1CCC[C@H]1C(=O)N[C@@H](CO)C(=O)N[C@@H](CO)C(=O)NCC(=O)N[C@@H](C)C(=O)N1CCC[C@H]1C(=O)N1CCC[C@H]1C(=O)N1CCC[C@H]1C(=O)N[C@@H](CO)C(N)=O)C(C)C [Example 11] (H-Y[dA]EGTFISDYSILLDKK([AEEA-AEEA-γGlu-C20 diacid])AQQDFVNWLLAQGPSSGAPPPS-NH2)?
Answer: EC50 [1]: 445 nM; EC50 [2]: 0.0738 nM; EC50 [3]: > 100 nM

Question: For CC[C@H](C)[C@H](NC(=O)[C@H](CO)NC(=O)[C@H](Cc1ccc(O)cc1)NC(=O)[C@H](CC(=O)O)NC(=O)[C@H](CO)NC(=O)[C@@H](NC(=O)[C@](C)(Cc1ccccc1F)NC(=O)[C@@H](NC(=O)CNC(=O)[C@H](CCC(=O)O)NC(=O)C(C)(C)NC(=O)[C@@H](N)Cc1ccc(O)cc1)[C@@H](C)O)[C@@H](C)CC)C(=O)N[C@@H](C)C(=O)N[C@@H](CC(C)C)C(=O)N[C@@H](CC(=O)O)C(=O)N[C@@H](CCCCN)C(=O)N[C@H](C(=O)N[C@@H](Cc1c[nH]cn1)C(=O)N[C@@H](CCC(N)=O)C(=O)NC(C)(C)C(=O)N[C@@H](CC(=O)O)C(=O)N[C@@H](Cc1ccccc1)C(=O)N[C@H](C(=O)N[C@@H](CCC(=O)O)C(=O)N[C@@H](Cc1ccncc1)C(=O)N[C@@H](CCCCNC(=O)COCCOCCNC(=O)COCCOCCNC(=O)CC[C@H](NC(=O)CCCCCCCCCCCCCCCCCCC(=O)O)C(=O)O)C(=O)N[C@@H](CC(C)C)C(=O)N[C@@H](CCC(=O)O)C(=O)NCC(=O)NCC(=O)N1CCC[C@H]1C(=O)N[C@@H](CO)C(=O)N[C@@H](CO)C(=O)NCC(=O)N[C@@H](C)C(=O)N1CCC[C@H]1C(=O)N1CCC[C@H]1C(=O)N1CCC[C@H]1C(=O)N[C@@H](CO)C(N)=O)C(C)C)[C@@H](C)CC [Example 112] (H-Y[Aib]EGT[αMePhe(2-F)]ISDYSIALDKIHQ[Aib]DFVE[4Pal]K([AEEA-AEEA-γGlu-C20 diacid])LEGGPSSGAPPPS-NH2), which EC50 [1] is on record?
Answer: > 5000 nM

Question: What about the EC50 [2] of the same compound?
Answer: 0.0041 nM

Question: And the EC50 [3]?
Answer: > 5000 nM

Question: For CC[C@H](C)[C@H](NC(=O)[C@H](CO)NC(=O)[C@H](Cc1ccc(O)cc1)NC(=O)[C@H](CC(=O)O)NC(=O)[C@H](CO)NC(=O)[C@@H](NC(=O)[C@H](Cc1ccccc1)NC(=O)[C@@H](NC(=O)CNC(=O)[C@H](CCC(=O)O)NC(=O)C(C)(C)NC(=O)[C@@H](N)Cc1ccc(O)cc1)[C@@H](C)O)[C@@H](C)CC)C(=O)N[C@@H](CC(C)C)C(=O)N[C@@H](CC(C)C)C(=O)N[C@@H](CC(=O)O)C(=O)N[C@@H](CCCCN)C(=O)N[C@@H](CCCCNC(=O)COCCOCCNC(=O)COCCOCCNC(=O)CC[C@H](NC(=O)CCCCCCCCCCCCCCCCC(=O)O)C(=O)O)C(=O)N[C@@H](Cc1c[nH]cn1)C(=O)N[C@@H](CCC(N)=O)C(=O)NC(C)(C)C(=O)N[C@@H](CC(=O)O)C(=O)N[C@@H](Cc1ccccc1)C(=O)N[C@H](C(=O)N[C@@H](CC(N)=O)C(=O)N[C@@H](Cc1ccc(O)cc1)C(=O)N[C@@H](CC(C)C)C(=O)N[C@@H](CC(C)C)C(=O)N[C@@H](C)C(=O)N[C@@H](C)C(=O)NCC(=O)N1CCC[C@H]1C(=O)N[C@@H](CO)C(=O)N[C@@H](CO)C(=O)NCC(=O)N[C@@H](C)C(=O)N1CCC[C@H]1C(=O)N1CCC[C@H]1C(=O)N1CCC[C@H]1C(=O)N[C@@H](CO)C(N)=O)C(C)C [Example 31] (H-Y[Aib]EGTFISDYSILLDKK([AEEA-AEEA-γGlu-C18 diacid])HQ[Aib]DFVNYLLAAGPSSGAPPPS-NH2), which EC50 [1] is on record?
Answer: 1750 nM

Question: What about the EC50 [2] of the same compound?
Answer: 0.0148 nM

Question: What about the EC50 [3] of the same compound?
Answer: > 5000 nM

Question: For CC[C@H](C)[C@H](NC(=O)[C@H](Cc1ccccc1)NC(=O)[C@@H](NC(=O)CNC(=O)[C@H](CCC(=O)O)NC(=O)C(C)(C)NC(=O)[C@@H](N)Cc1ccc(O)cc1)[C@@H](C)O)C(=O)N[C@@H](CO)C(=O)N[C@@H](CC(=O)O)C(=O)N[C@@H](Cc1ccc(O)cc1)C(=O)N[C@@H](CO)C(=O)N[C@H](C(=O)N[C@@](C)(CC(C)C)C(=O)N[C@@H](CC(C)C)C(=O)N[C@@H](CC(=O)O)C(=O)N[C@@H](CCC(=O)O)C(=O)N[C@@H](CCCCNC(=O)COCCOCCNC(=O)COCCOCCNC(=O)CC[C@H](NC(=O)CCCCCCCCCCCCCCCCCCC(=O)O)C(=O)O)C(=O)N[C@@H](Cc1c[nH]cn1)C(=O)N[C@@H](CCC(N)=O)C(=O)NC(C)(C)C(=O)N[C@@H](CC(=O)O)C(=O)N[C@@H](Cc1ccccc1)C(=O)N[C@H](C(=O)N[C@@H](CCC(=O)O)C(=O)N[C@@H](Cc1ccncc1)C(=O)N[C@@H](CC(C)C)C(=O)N[C@@H](CC(C)C)C(=O)N[C@@H](C)C(=O)N[C@@H](C)C(=O)NCC(=O)N1CCC[C@H]1C(=O)N[C@@H](CO)C(=O)N[C@@H](CO)C(=O)NCC(=O)N[C@@H](C)C(=O)N1CCC[C@H]1C(=O)N1CCC[C@H]1C(=O)N1CCC[C@H]1C(=O)N[C@@H](CO)C(N)=O)C(C)C)[C@@H](C)CC [Example 85], which EC50 [1] is on record?
Answer: > 5000 nM

Question: What about the EC50 [2] of the same compound?
Answer: 0.0359 nM

Question: What about the EC50 [3] of the same compound?
Answer: > 5000 nM

From patent publication US12723063B2, “GIPR-agonist compounds” (Eli Lilly and Company, priority 2019, dated 2026)
